Experimental data taken from ChEMBL document CHEMBL5291721, “A preclinical secondary pharmacology resource illuminates target-adverse drug reaction associations of marketed drugs” (Nat Commun, 2023).

Tests used:
Histamine H1 receptor = Histamine H1 receptor (Homo sapiens, UniProt P35367)
D(3) dopamine receptor = D(3) dopamine receptor (Homo sapiens, UniProt P35462)
[1] = target: T1, Prostaglandin G/H synthase 1 (Rattus norvegicus, UniProt Q63921); assay type: functional
T1 sequence (Q63921 whole entry): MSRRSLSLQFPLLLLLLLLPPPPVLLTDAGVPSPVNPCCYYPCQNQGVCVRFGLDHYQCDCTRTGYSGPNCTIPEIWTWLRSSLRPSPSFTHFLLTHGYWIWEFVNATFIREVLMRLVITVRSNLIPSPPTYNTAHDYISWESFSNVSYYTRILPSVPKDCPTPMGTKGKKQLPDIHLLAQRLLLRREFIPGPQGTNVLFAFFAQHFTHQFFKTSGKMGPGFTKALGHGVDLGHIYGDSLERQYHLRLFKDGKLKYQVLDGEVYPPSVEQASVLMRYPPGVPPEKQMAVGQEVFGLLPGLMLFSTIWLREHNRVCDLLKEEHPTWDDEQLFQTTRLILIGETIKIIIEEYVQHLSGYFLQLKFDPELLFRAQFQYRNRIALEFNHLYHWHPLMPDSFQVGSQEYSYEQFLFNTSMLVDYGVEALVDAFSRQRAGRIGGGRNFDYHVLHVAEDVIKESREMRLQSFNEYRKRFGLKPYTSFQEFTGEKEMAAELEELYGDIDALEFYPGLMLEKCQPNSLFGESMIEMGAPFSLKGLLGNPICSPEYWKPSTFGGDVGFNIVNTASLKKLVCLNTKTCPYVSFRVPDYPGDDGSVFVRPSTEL

[2] = target: Sodium-dependent noradrenaline transporter (Homo sapiens, UniProt P23975)
Progesterone receptor = target: T2, Progesterone receptor (Homo sapiens, UniProt P06401); assay type: functional
T2 sequence (P06401 whole entry): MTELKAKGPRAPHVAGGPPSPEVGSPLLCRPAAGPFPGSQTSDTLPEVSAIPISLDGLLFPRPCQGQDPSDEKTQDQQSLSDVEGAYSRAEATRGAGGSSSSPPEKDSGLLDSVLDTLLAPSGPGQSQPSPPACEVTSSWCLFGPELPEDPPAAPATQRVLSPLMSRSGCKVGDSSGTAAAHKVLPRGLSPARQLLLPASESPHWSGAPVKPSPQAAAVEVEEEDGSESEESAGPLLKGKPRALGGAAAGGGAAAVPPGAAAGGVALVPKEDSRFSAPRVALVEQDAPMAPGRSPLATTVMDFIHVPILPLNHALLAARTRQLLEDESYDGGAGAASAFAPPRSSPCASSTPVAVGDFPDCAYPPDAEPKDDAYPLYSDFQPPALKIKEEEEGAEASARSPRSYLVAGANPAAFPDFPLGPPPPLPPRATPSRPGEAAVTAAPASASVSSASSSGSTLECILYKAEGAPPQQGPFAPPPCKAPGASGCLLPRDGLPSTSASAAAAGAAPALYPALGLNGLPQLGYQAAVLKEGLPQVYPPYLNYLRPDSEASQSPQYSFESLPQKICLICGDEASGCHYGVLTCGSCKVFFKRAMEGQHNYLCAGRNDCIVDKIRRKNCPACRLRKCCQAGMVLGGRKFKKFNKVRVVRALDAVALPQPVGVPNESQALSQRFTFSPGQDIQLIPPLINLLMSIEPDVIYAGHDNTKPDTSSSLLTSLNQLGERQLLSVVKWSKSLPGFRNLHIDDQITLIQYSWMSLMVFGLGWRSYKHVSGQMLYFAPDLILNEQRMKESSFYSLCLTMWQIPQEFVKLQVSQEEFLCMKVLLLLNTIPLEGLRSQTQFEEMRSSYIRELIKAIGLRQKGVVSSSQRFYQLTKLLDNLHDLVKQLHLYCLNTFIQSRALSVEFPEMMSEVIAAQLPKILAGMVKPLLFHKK

[3] = target: Beta-1 adrenergic receptor (Homo sapiens, UniProt P08588); assay type: functional
[4] = target: T3, Amine oxidase [flavin-containing] A (Homo sapiens, UniProt P21397); assay type: functional
T3 sequence (P21397 whole entry): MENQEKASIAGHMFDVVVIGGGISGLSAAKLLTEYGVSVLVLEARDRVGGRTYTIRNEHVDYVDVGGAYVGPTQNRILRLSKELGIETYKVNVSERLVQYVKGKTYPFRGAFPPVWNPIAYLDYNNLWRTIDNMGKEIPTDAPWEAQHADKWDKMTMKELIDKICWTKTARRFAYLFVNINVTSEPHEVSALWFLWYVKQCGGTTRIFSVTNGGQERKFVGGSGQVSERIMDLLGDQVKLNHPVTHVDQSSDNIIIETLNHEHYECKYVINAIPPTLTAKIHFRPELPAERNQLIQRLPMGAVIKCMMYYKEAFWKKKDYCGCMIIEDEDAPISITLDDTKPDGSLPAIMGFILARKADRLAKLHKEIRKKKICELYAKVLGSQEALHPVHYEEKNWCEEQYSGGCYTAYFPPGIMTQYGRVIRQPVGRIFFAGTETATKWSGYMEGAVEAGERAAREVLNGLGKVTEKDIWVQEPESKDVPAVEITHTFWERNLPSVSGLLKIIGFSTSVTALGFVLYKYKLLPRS

[5] = target: T4, Alpha-2B adrenergic receptor (Homo sapiens, UniProt P18089)
T4 sequence (P18089 whole entry): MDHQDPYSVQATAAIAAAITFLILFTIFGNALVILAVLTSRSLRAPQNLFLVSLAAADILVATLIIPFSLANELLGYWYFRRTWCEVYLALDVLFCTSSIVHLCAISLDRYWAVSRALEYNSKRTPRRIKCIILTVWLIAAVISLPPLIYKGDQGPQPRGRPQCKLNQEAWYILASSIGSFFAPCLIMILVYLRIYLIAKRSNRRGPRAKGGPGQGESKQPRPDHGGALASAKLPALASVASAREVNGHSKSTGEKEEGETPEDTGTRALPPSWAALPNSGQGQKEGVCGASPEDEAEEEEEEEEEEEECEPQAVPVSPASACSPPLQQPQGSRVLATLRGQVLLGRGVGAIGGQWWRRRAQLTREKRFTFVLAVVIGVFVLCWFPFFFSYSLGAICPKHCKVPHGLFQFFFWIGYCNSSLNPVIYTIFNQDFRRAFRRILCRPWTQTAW
Further: assay procedure not described here.

Histamine H1 receptor, sequence (P35367 whole entry): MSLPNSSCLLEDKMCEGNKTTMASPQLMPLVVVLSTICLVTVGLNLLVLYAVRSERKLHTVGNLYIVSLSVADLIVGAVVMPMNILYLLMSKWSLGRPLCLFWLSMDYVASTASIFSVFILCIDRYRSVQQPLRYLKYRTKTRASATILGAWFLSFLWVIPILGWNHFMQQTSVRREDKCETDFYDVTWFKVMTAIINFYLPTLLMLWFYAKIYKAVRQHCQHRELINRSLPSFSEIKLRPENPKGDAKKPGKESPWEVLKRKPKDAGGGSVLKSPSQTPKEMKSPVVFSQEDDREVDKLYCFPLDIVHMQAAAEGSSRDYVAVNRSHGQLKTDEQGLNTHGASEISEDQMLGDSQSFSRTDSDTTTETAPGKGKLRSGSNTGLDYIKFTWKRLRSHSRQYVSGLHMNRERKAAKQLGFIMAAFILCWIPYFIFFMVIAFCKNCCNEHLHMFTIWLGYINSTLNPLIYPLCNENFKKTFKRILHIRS
D(3) dopamine receptor, sequence (P35462 whole entry): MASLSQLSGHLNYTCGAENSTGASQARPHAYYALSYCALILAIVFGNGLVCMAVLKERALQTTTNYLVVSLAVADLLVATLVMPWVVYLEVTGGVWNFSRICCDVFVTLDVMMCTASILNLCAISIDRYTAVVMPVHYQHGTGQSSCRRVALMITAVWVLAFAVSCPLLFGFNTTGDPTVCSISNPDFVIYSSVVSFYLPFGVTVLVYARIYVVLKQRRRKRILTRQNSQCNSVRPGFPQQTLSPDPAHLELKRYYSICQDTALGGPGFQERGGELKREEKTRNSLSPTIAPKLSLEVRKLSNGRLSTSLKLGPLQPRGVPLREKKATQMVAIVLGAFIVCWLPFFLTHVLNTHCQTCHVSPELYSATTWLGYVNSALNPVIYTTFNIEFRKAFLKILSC
Sodium-dependent noradrenaline transporter, sequence (P23975 whole entry): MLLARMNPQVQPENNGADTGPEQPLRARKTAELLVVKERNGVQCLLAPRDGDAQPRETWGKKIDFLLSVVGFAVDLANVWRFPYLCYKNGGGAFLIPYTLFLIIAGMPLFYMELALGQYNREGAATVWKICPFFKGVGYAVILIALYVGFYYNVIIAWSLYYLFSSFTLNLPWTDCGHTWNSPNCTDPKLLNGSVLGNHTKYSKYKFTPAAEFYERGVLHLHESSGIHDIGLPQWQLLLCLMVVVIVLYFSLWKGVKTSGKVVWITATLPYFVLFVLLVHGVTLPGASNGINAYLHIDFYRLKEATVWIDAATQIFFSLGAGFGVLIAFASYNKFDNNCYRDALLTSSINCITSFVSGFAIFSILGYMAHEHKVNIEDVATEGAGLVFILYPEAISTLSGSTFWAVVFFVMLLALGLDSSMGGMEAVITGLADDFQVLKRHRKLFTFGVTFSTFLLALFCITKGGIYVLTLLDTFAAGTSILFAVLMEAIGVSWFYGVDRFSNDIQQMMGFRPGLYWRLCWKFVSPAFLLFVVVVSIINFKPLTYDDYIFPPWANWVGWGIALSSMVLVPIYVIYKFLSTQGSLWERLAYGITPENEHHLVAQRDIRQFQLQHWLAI
Beta-1 adrenergic receptor, sequence (P08588 whole entry): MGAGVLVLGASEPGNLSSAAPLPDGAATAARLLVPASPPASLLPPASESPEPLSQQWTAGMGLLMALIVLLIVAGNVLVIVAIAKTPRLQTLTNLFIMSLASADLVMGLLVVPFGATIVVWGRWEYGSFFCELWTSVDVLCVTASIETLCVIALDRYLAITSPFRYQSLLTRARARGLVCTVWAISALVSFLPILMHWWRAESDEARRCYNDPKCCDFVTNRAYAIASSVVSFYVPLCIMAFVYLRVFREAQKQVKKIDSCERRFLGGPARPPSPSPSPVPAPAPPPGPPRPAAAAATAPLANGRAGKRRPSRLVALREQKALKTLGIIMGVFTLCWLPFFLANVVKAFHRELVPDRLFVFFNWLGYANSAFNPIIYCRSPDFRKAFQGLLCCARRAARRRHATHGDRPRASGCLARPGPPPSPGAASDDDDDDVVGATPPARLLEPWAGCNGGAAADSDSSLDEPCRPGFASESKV

Row | Compound | AC50 (Histamine H1 receptor) | AC50 (D(3) dopamine receptor) | AC50 [1] | AC50 [2] | AC50 (Progesterone receptor) | AC50 [3] | AC50 [4] | AC50 [5]
1 | C=C[C@@]1(C)CC(=O)[C@]2(O)[C@@]3(C)[C@@H](O)CCC(C)(C)[C@@H]3[C@H](O)[C@H](OC(C)=O)[C@@]2(C)O1 [COLFORSIN] | > 30 µM | > 30 µM | > 30 µM | > 30 µM | > 30 µM | > 30 µM | > 30 µM | > 30 µM
2 | COc1cc2c(cc1OC)C(CCc1ccc(Cl)cc1)N(C)CC2 (configuration not stated) [METHOPHOLINE] | > 10 µM | > 30 µM | 0.77 µM | > 30 µM | > 30 µM | > 30 µM | 11 µM | > 10 µM
3 | C/C(=C\C(=O)OCCCCCCCCC(=O)O)C[C@@H]1OC[C@H](C[C@@H]2O[C@H]2[C@@H](C)[C@H](C)O)[C@@H](O)[C@H]1O [MUPIROCIN] | > 10 µM | > 30 µM | > 10 µM | > 30 µM | > 10 µM | > 10 µM | > 10 µM | > 10 µM
4 | C#CCOc1ccc(N)cc1C(=O)NCCCC [PARSALMIDE] | > 30 µM | > 30 µM | 2.3 µM | > 30 µM | > 30 µM | > 30 µM | > 30 µM | > 30 µM
5 | CCN(CC)C(=O)Nc1ccc(OCC(O)CNC(C)(C)C)c(C(C)=O)c1 (configuration not stated) [CELIPROLOL] | > 30 µM | > 30 µM | > 30 µM | > 30 µM | > 30 µM | 0.076 µM | > 30 µM | > 30 µM
6 | O=C1CN=C(c2ccccn2)c2cc(Br)ccc2N1 [BROMAZEPAM] | > 10 µM | > 30 µM | > 10 µM | > 10 µM | > 10 µM | > 10 µM | > 10 µM | > 10 µM
7 | C[N@+]1(CCF)[C@@H]2CC[C@H]1C[C@@H](OC(=O)C(O)(c1ccccc1)c1ccccc1)C2 | 15 µM | > 30 µM | > 10 µM | > 30 µM | > 30 µM | > 30 µM | > 30 µM | > 30 µM
8 | CC(=O)SC[C@@H](C)C(=O)N1CCC[C@H]1C(=O)N[C@@H](Cc1ccccc1)C(=O)O | > 30 µM | > 30 µM | > 30 µM | > 30 µM | > 30 µM | > 30 µM | > 30 µM | > 30 µM
9 | CC1=C(C)C(=O)C(C(CCCCCC(=O)O)c2ccccc2)=C(C)C1=O (configuration not stated) [SERATRODAST] | > 30 µM | > 30 µM | 1.14 µM | > 30 µM | > 30 µM | > 30 µM | > 30 µM | > 30 µM
